“Also recorded” adds a separate entry of the source.
What was measured:
[1] = tested on: fibroblasts isolated from an individual with NPC1 disease (NPC-25); assay: LysoTracker Red staining quantified by FACS in NPC1 patient fibroblasts; assay type: cell-based, human; details: for LysoTracker Red staining intensity (NPC1-associated cholesterol storage defects): NPC-25 cells; for increased LysoTracker staining in NPC1 patient fibroblasts: Example 2, FIGS. 8 and 9; for fold change in fluorescence (stained/unstained): NPD patient samples, Example 1, FIGS. 4, 5A, 5B; for normalizing fold-change in fluorescence in cells of NPD subjects: in vitro
Method: (D) Bar graphs showing the percentage change of LysoTracker (y-axis) staining intensity in untreated NPC-25 cells (blue bar, set to 100%) as compared to NPC25 cells treated with MβCD, α-T or δ-T (green bars). […] MβCD (Sigma-Aldrich, St. Louis, Mo. cat. #C4555) was resuspended in sterile H2O to a 1 mM stock solution, while α-T and δ-T were dissolved in DMSO to 40 μM, therefore the untreated controls were no drug added for methyl-β-cyclodextrin treatment, and DMSO only added for α-T and δ-T treatment. Statistical analyses performed using Prism (GraphPad).
Cells were cultured in DMEM with fetal bovine serum, L-glutamine, and antibiotics at 5% CO2 in a 37° C. incubator. Cell staining was carried out as follows: Lysotracker-Red Staining Protocol: • Day1—Change media 24 hours before FACS analysis, if treating cells with methyl beta cyclodextrin add the drug as well. • Day2—Note: WORK IN THE DARK, (PROTECT TUBES FROM THE LIGHT while using lysotracker-red) • Dilute LYSOTRACKER-red (1:1000) for a final concentration of 1 μM with culture media. • Incubate cells with lysotracker in the incubator (37° C.) for 30 minutes. • Aspirate media and wash twice with 1×PBS (2 mls each time). • Add 300 μls of Trypsin • Resuspend cells into 5 mls of media and centrifuge at 1000 rpm for 10 minutes in order to obtain pellet. • Resuspend the pellet into 500 uls of media and transfer to FACS vials at 4° C. in the dark. • Perform FACS analysis.
The fluorescence of the cell samples was quantified before and after staining and the fold change in fluorescence was calculated as the ratio of fluorescent intensity after dye/cell autofluorescence. This change was then plotted as a function of time.
Cells were plated onto 60 mm tissue culture dishes and cultured to 70-80% confluency. Media were replaced 24 h prior to analysis. On the day of analysis, cells were incubated at 37° C. for 30 min in fresh media containing 1 μM LysoTracker Red dye (LysoTracker) in 3 mL medium/60 mm dish. Cells were then given two PBS washes, trypsinized, pelleted and resuspended in 500 μL medium. FACS data were collected on 10,000 cells using a FACSCalibur (Becton Dickinson Biosciences, Franklin Lakes, N.J.) equipped with Cell Quest software and analyzed using FlowJo (Tree Star). Fold change in LysoTracker staining was calculated as the ratio of geometric means of stained/unstained samples. Duplicate biological replicates were analyzed on three different days, totaling 6 independent samples per cell line.

[2] = tested on: cultured cells; details: cited from earlier work
[3] = tested on: fibroblasts (NPC1, NPC2, Wolman, Batten, Fabry, Farber, Niemann-Pick A, Sanfilippo type B, Tay-Sachs diseases); details: 40 μM, fibroblasts of NPC1, NPC2, Wolman; cited from earlier work
[4] = tested on: control fibroblasts (CTL1); assay: LysoTracker Red staining quantified by FACS in control (wild type) fibroblasts; assay type: cell-based, human; details: wild type samples, Example 1, FIGS. 4, 5A
Method: (A, B) Histograms of FACS analysis of control fibroblasts (A, CTL1) and fibroblasts isolated from an individual with NPC1 disease (B, NPC-25). […] Pink line indicates distribution of unstained cells; blue line indicates LysoTracker-stained cells transfected with an empty control vector (pLenti6.2 Vector/V5 DEST, Invitrogen); green line indicates LysoTracker-stained cells transfected with a human NPC1 cDNA expression vector (Origene, Rockville, Md.; cat. #SC120010). At 72 hours post-transfection, cells were stained with LysoTracker Red dye and analyzed by FACS. […]
The fluorescence of the cell samples was quantified before and after staining and the fold change in fluorescence was calculated as the ratio of fluorescent intensity after dye/cell autofluorescence. […]
Cells were plated onto 60 mm tissue culture dishes and cultured to 70-80% confluency. […] FACS data were collected on 10,000 cells using a FACSCalibur (Becton Dickinson Biosciences, Franklin Lakes, N.J.) equipped with Cell Quest software and analyzed using FlowJo (Tree Star). Fold change in LysoTracker staining was calculated as the ratio of geometric means of stained/unstained samples. Duplicate biological replicates were analyzed on three different days, totaling 6 independent samples per cell line.

[5] = tested on: fibroblasts isolated from an individual with NPC1 disease (NPC-25); assay: LysoTracker Red staining quantified by FACS in NPC1 patient fibroblasts; assay type: cell-based, human; details: NPC4 cells

Compound	removal of cholesterol from cultured cells [2]	increased LysoTracker staining in NPC1 patient fibroblasts [1]	fold change in fluorescence (stained/unstained) [1]	normalizing fold-change in fluorescence in cells of NPD subjects [1]	further results
Cc1c(C)c2c(c(C)c1O)CC[C@@](C)(CCC[C@H](C)CCC[C@H](C)CCCC(C)C)O2 [α-T, α-tocopherol]					LysoTracker Red staining intensity (NPC1-associated cholesterol storage defects) ([1]; 40 μM α-T for 72 hours, vs DMSO only): not
OC[C@H]1O[C@@H]2O[C@H]3[C@H](O)[C@@H](O)[C@@H](O[C@H]4[C@H](O)[C@@H](O)[C@@H](O[C@H]5[C@H](O)[C@@H](O)[C@@H](O[C@H]6[C@H](O)[C@@H](O)[C@@H](O[C@H]7[C@H](O)[C@@H](O)[C@@H](O[C@H]8[C@H](O)[C@@H](O)[C@@H](O[C@H]1[C@H](O)[C@H]2O)O[C@@H]8CO)O[C@@H]7CO)O[C@@H]6CO)O[C@@H]5CO)O[C@@H]4CO)O[C@@H]3CO [β-cyclodextrin]	remove cholesterol				
Cc1cc(O)cc2c1O[C@](C)(CCC[C@H](C)CCC[C@H](C)CCCC(C)C)CC2 [δ-T, δ-tocopherol]		lessened			LysoTracker Red staining intensity (NPC1-associated cholesterol storage defects) ([1]; 40 μM δ-T for 72 hours, vs DMSO only): relieved NPC1-associated cholesterol storage defects; lysosomal storage defects (including LysoTracker staining) [3]: reduced lysosomal storage defects
Methyl-β-cyclodextrin [MβCD]	remove cholesterol; also recorded: more efficient than β-cyclodextrin	lessened	reduced		LysoTracker Red staining intensity (NPC1-associated cholesterol storage defects) ([1]; 300 μM MβCD for 24 hours, vs untreated cells (100%)): relieved NPC1-associated cholesterol storage defects; fold change in fluorescence (stained/unstained) [4]: reduced
Tocopherol			effective in reducing the fold change in fluorescence	useful in normalizing fold-change in fluorescence	
cyclodextrin				useful in normalizing fold-change in fluorescence; also recorded: normalize the fold-change in fluorescence	fluorescence values by FACS (FIG. 1A) [5]: corrected
